Experimental data as given in patent US12559492B2, “BRAF degraders” (C4 Therapeutics, Inc., priority 2020, dated 2026).

Biological target: BRAF^V600E protein (Homo sapiens, UniProt P15056, V600E)
Experiment: HiBiT cellular BRAF V600E degradation assay
Assay type: cell-based
Details: 24 h incubation; for DC50: A375.10 cells (HiBiT tag knocked in at N-terminal of BRAF V600E), concentration at which 50% of total cellular BRAF V600E is degraded; for Emax: read-out: HiBit 24 h Emax
[1] = A375.10 cells, Emax = amount of residual protein remaining in the cell after compound treatment

Sequence of BRAF^V600E protein (P15056 whole entry V600E): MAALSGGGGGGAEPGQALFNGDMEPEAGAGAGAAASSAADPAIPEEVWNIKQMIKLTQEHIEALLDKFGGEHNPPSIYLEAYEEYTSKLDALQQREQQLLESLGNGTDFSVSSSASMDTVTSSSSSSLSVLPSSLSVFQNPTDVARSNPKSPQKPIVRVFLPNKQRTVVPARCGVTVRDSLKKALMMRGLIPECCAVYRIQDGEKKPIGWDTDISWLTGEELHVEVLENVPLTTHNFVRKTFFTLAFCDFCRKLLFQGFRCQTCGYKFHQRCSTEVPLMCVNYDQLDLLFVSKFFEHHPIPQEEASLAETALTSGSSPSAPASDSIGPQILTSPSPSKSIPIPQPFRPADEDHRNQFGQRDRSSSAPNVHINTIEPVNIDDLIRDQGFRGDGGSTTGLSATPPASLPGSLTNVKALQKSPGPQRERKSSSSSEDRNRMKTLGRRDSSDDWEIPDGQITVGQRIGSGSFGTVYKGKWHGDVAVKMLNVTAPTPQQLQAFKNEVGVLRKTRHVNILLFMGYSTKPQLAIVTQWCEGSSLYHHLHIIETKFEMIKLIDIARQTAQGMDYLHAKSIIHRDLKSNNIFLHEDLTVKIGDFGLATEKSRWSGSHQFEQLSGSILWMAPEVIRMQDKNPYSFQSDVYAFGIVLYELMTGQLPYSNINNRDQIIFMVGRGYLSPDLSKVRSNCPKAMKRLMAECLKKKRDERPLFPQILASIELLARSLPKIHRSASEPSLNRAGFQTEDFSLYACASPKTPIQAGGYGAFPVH

Structure (SMILES) | DC50 [nM] | HiBit 24 h Emax [1] [%] | Emax [1] [%]
CCN(C)S(=O)(=O)Nc1ccc(F)c(C(=O)c2c[nH]c3ncc(-c4ccc(CN5CCN(C(=O)CN6CCN(c7ccc(NC8CCC(=O)NC8=O)cc7)CC6)CC5)cc4)cc23)c1F.O=C(O)C(F)(F)F (stereo not drawn) [Example A24, 5-[4-[[4-[2-[4-[4-[(2,6-Dioxopiperidin-3-yl)amino]phenyl]piperazin-1-yl]acetyl]piperazin-1-yl]methyl]phenyl]-3-[3-[[ethyl(methyl)sulfamoyl]amino]-2,6-difluorobenzoyl]-1H-pyrrolo[2,3-b]pyridine; 2,2,2-trifluoroacetic acid] | 30 | 13 | –
CCN(C)S(=O)(=O)Nc1ccc(F)c(C(=O)c2c[nH]c3ncc(-c4ccc(CN5CCN(C(=O)CN6CCN(c7cccc(NC8CCC(=O)NC8=O)c7)CC6)CC5)cc4)cc23)c1F (stereo not drawn) [Example A25, 5-[4-[[4-[2-[4-[3-[(2,6-Dioxopiperidin-3-yl)amino]phenyl]piperazin-1-yl]acetyl]piperazin-1-yl]methyl]phenyl]-3-[3-[[ethyl(methyl)sulfamoyl]amino]-2,6-difluorobenzoyl]-1H-pyrrolo[2,3-b]pyridine; 2,2,2-trifluoroacetic acid] | 101 | – | 18
O=C1CCC(Oc2ccc(C3CCN(C(=O)NC4CCN(Cc5ccc(-c6cnc7[nH]cc(C(=O)c8c(F)ccc(NS(=O)(=O)N9CCCC9)c8F)c7c6)cc5)CC4)CC3)cc2)C(=O)N1 (stereo not drawn) [Example A27, N-[1-[[4-[3-[2,6-Difluoro-3-(pyrrolidin-1-ylsulfonylamino)benzoyl]-1H-pyrrolo[2,3-b]pyridin-5-yl]phenyl]methyl]piperidin-4-yl]-4-[4-(2,6-dioxopiperidin-3-yl)oxyphenyl]piperidine-1-carboxamide; formic acid] | 104 | – | 30
CCC(C)S(=O)(=O)Nc1ccc(F)c(C(=O)c2c[nH]c3ncc(-c4ccc(N5CCN(C(=O)CN6CCC(c7ccc(OC8CCC(=O)NC8=O)cc7)CC6)CC5)nc4)cc23)c1F (stereo not drawn) [Example A28, N-[3-[5-[6-[4-[2-[4-[4-(2,6-Dioxopiperidin-3-yl)oxyphenyl]piperidin-1-yl]acetyl]piperazin-1-yl]pyridin-3-yl]-1H-pyrrolo[2,3-b]pyridine-3-carbonyl]-2,4-difluorophenyl]butane-2-sulfonamide] | 12 | – | 14
CCC(C)S(=O)(=O)Nc1ccc(F)c(C(=O)c2c[nH]c3ncc(-c4ccc(N5CCN(C(=O)CN6CCC(c7ccc(NC8CCC(=O)NC8=O)cc7)CC6)CC5)nc4)cc23)c1F (stereo not drawn) [Example A29, N-[3-[5-[6-[4-[2-[4-[4-[(2,6-Dioxopiperidin-3-yl)amino]phenyl]piperidin-1-yl]acetyl]piperazin-1-yl]pyridin-3-yl]-1H-pyrrolo[2,3-b]pyridine-3-carbonyl]-2,4-difluorophenyl]butane-2-sulfonamide] | 3.05 | – | 10.9
CCN(C)S(=O)(=O)Nc1ccc(F)c(C(=O)c2c[nH]c3ncc(-c4ccc(OC5CCN(C(=O)CN6CCC(c7ccc(NC8CCC(=O)NC8=O)cc7)CC6)CC5)cc4)cc23)c1F (stereo not drawn) [Example A31, 5-[4-[1-[2-[4-[4-[(2,6-dioxopiperidin-3-yl)amino]phenyl]piperidin-1-yl]acetyl]piperidin-4-yl]oxyphenyl]-3-[3-[[ethyl(methyl)sulfamoyl]amino]-2,6-difluorobenzoyl]-1H-pyrrolo[2,3-b]pyridine] | 15 | – | 12
O=C1CCC(Nc2ccc(C3CCN(CC(=O)N4CCN(c5ccc(-c6cnc7[nH]cc(C(=O)c8c(F)ccc(NS(=O)(=O)C9CCCCC9)c8F)c7c6)cn5)CC4)CC3)cc2)C(=O)N1 (stereo not drawn) [Example A33, N-[3-[5-[6-[4-[2-[4-[4-[(2,6-Dioxopiperidin-3-yl)amino]phenyl]piperidin-1-yl]acetyl]piperazin-1-yl]pyridin-3-yl]-1H-pyrrolo[2,3-b]pyridine-3-carbonyl]-2,4-difluorophenyl]cyclohexanesulfonamide] | 34 | – | 13
CCN(C)S(=O)(=O)Nc1ccc(F)c(C(=O)c2c[nH]c3ncc(-c4cnc(N5CCC(NC(=O)N6CCC(c7ccc(NC8CCC(=O)NC8=O)cc7)CC6)CC5)nc4)cc23)c1F (stereo not drawn) [Example A34, 4-[4-[(2,6-Dioxopiperidin-3-yl)amino]phenyl]-N-[1-[5-[3-[3-[[ethyl(methyl)sulfamoyl]amino]-2,6-difluorobenzoyl]-1H-pyrrolo[2,3-b]pyridin-5-yl]pyrimidin-2-yl]piperidin-4-yl]piperidine-1-carboxamide;formic acid] | 79 | – | 25
CCN(C)S(=O)(=O)Nc1ccc(F)c(C(=O)c2c[nH]c3ncc(-c4ccc(N5CCN(C(=O)CCN6CCC(c7ccc(OC8CCC(=O)NC8=O)cc7)CC6)CC5)nc4)cc23)c1F (stereo not drawn) [Example A35, 5-[6-[4-[3-[4-[4-(2,6-Dioxopiperidin-3-yl)oxyphenyl]piperidin-1-yl]propanoyl]piperazin-1-yl]pyridin-3-yl]-3-[3-[[ethyl(methyl)sulfamoyl]amino]-2,6-difluorobenzoyl]-1H-pyrrolo[2,3-b]pyridine] | 54 | – | 21
CCN(C)S(=O)(=O)Nc1ccc(F)c(C(=O)c2c[nH]c3ncc(-c4ccc(N5CCN(C(=O)CN6CCC(c7ccc(NC8CCC(=O)NC8=O)cc7)CC6)CC5)cc4)cc23)c1F (stereo not drawn) [Example A36, 5-[4-[4-[2-[4-[4-[(2,6-Dioxopiperidin-3-yl)amino]phenyl]piperidin-1-yl]acetyl]piperazin-1-yl]phenyl]-3-[3-[[ethyl(methyl)sulfamoyl]amino]-2,6-difluorobenzoyl]-1H-pyrrolo[2,3-b]pyridine] | 3 | – | 10
CCN(C)S(=O)(=O)Nc1ccc(F)c(C(=O)c2c[nH]c3ncc(-c4ccc(N5CCN(C(=O)CN(C)C(=O)Cc6ccc(NC7CCC(=O)NC7=O)cc6)CC5)nc4)cc23)c1F (stereo not drawn) [Example A39, 2-[4-[(2,6-dioxopiperidin-3-yl)amino]phenyl]-N-[2-[4-[5-[3-[3-[[ethyl(methyl)sulfamoyl]amino]-2,6-difluorobenzoyl]-1H-pyrrolo[2,3-b]pyridin-5-yl]pyridin-2-yl]piperazin-1-yl]-2-oxoethyl]-N-methylacetamide] | 35 | – | 18
CCN(C)S(=O)(=O)Nc1ccc(F)c(C(=O)c2c[nH]c3ncc(C#CC4CCN(C(=O)CN5CCC(c6ccc(NC7CCC(=O)NC7=O)cc6)CC5)CC4)cc23)c1F (stereo not drawn) [Example A43, 5-[2-[1-[2-[4-[4-[(2,6-Dioxopiperidin-3-yl)amino]phenyl]piperidin-1-yl]acetyl]piperidin-4-yl]ethynyl]-3-[3-[[ethyl(methyl)sulfamoyl]amino]-2,6-difluorobenzoyl]-1H-pyrrolo[2,3-b]pyridine] | 57 | – | 32

Continued by falling DC50, values first:

DC50 [nM] | HiBit 24 h Emax [1] [%] | Emax [1] [%] | Structure (SMILES)
166 | – | 19 | CCN(C)S(=O)(=O)Nc1ccc(F)c(C(=O)c2c[nH]c3ncc(-c4ccc(CN5CCN(C(=O)CCCN6CCC(c7ccc(NC8CCC(=O)NC8=O)cc7)CC6)CC5)cc4)cc23)c1F (stereo not drawn) [Example A26, 5-[4-[[4-[4-[4-[4-[(2,6-Dioxopiperidin-3-yl)amino]phenyl]piperidin-1-yl]butanoyl]piperazin-1-yl]methyl]phenyl]-3-[3-[[ethyl(methyl)sulfamoyl]amino]-2,6-difluorobenzoyl]-1H-pyrrolo[2,3-b]pyridine; 2,2,2-trifluoroacetic acid]
53 | – | 13 | CCN(C)S(=O)(=O)Nc1ccc(F)c(C(=O)c2c[nH]c3ncc(-c4ccc(OC5CCN(C(=O)CN6CCC(c7ccc(OC8CCC(=O)NC8=O)cc7)CC6)CC5)cc4)cc23)c1F (stereo not drawn) [Example A30, 5-[4-[1-[2-[4-[4-(2,6-Dioxopiperidin-3-yl)oxyphenyl]piperidin-1-yl]acetyl]piperidin-4-yl]oxyphenyl]-3-[3-[[ethyl(methyl)sulfamoyl]amino]-2,6-difluorobenzoyl]-1H-pyrrolo[2,3-b]pyridine]
47 | – | 20 | CCN(C)S(=O)(=O)Nc1ccc(F)c(C(=O)c2c[nH]c3ncc(-c4ccc(CN5CCN(C(=O)CN6Cc7ccc(NC8CCC(=O)NC8=O)cc7C6)CC5)nc4)cc23)c1F (stereo not drawn) [Example A38, 5-[6-[[4-[2-[5-[(2,6-Dioxopiperidin-3-yl)amino]-1,3-dihydroisoindol-2-yl]acetyl]piperazin-1-yl]methyl]pyridin-3-yl]-3-[3-[[ethyl(methyl)sulfamoyl]amino]-2,6-difluorobenzoyl]-1H-pyrrolo[2,3-b]pyridine]
39 | – | 15 | O=C1CCC(Oc2ccc(C3CCN(CC(=O)N4CCN(c5ccc(-c6cnc7[nH]cc(C(=O)c8c(F)ccc(NS(=O)(=O)C9CCCCC9)c8F)c7c6)cn5)CC4)CC3)cc2)C(=O)N1 (stereo not drawn) [Example A32, N-[3-[5-[6-[4-[2-[4-[4-(2,6-Dioxopiperidin-3-yl)oxyphenyl]piperidin-1-yl]acetyl]piperazin-1-yl]pyridin-3-yl]-1H-pyrrolo[2,3-b]pyridine-3-carbonyl]-2,4-difluorophenyl]cyclohexanesulfonamide]
14.6 | – | 20.6 | CCN(C)S(=O)(=O)Nc1ccc(F)c(C(=O)c2c[nH]c3ncc(-c4ccc(N5CCN(C(=O)CN6Cc7ccc(NC8CCC(=O)NC8=O)cc7C6)CC5)nc4)cc23)c1F (stereo not drawn) [Example A37, 5-[6-[4-[2-[5-[(2,6-Dioxopiperidin-3-yl)amino]-1,3-dihydroisoindol-2-yl]acetyl]piperazin-1-yl]pyridin-3-yl]-3-[3-[[ethyl(methyl)sulfamoyl]amino]-2,6-difluorobenzoyl]-1H-pyrrolo[2,3-b]pyridine]
8 | – | 17 | CCN(C)S(=O)(=O)Nc1ccc(F)c(C(=O)c2c[nH]c3ncc(-c4cnc(N5CCC(NC(=O)N6CCC(c7ccc(NC8CCC(=O)NC8=O)cn7)CC6)CC5)nc4)cc23)c1F (stereo not drawn) [Example A40, 4-[5-[(2,6-Dioxopiperidin-3-yl)amino]pyridin-2-yl]-N-[1-[5-[3-[3-[[ethyl(methyl)sulfamoyl]amino]-2,6-difluorobenzoyl]-1H-pyrrolo[2,3-b]pyridin-5-yl]pyrimidin-2-yl]piperidin-4-yl]piperidine-1-carboxamide;formic acid]
